Patent US20260356819A1, “OXOISOINDOLINYL-SUBSTITUTED […] DERIVATIVE AND USE THEREOF” (GLUETACS THERAPEUTICS (SHANGHAI) CO., LTD., priority 2023, published 2026)

Tests used:
GSPT1 = target: T1, GSPT1 (Homo sapiens, UniProt P15170+Q96SW2); test: Western blot degradation of GSPT1 in hPBMCs (24 h); type: cell-based; conditions: compounds at 50 nM and 500 nM
T1 construct: The supernatant was aspirated as the extracted total cell protein; endogenous in cells; host or cells: human peripheral blood mononuclear cells (hPBMCs)
Procedure, shortened: (§1)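 In this assay, each compound was incubated with human PBMCs for 24 h at 50 nM and 500 nM. Target levels were measured by Western blot densitometry normalised to an internal control.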

IKZF3 = target: T2, IKZF3 (Homo sapiens, UniProt Q96SW2+Q9UKT9); test: Western blot degradation of IKZF3 in hPBMCs (24 h); type: cell-based; conditions: compounds at 50 nM and 500 nM
T2 construct: The supernatant was aspirated as the extracted total cell protein; endogenous in cells; host or cells: human peripheral blood mononuclear cells (hPBMCs)
Procedure, shortened: as §1

MM.1S cells = test: Inhibition of proliferation of multiple myeloma cells MM.1S (cell viability assay, 96 h); type: cell-based, human; conditions: read-out: inhibitory activity (IC50) against tumor cells proliferation, MM.1S
Method: (§2) The tumor cells used herein were cultured in a cell culture medium listed in table 2 at 37 °C in an incubator with 5% CO2. Prior to experimentation, all cell lines used were correctly identified by STR profiling, and tested negative for Mycoplasma contamination using a Mycoplasma detection kit through routine screenings.
(§3) The IC50 values of the compounds of the present disclosure (including the compounds in Table 1, and Examples 1-498) were determined using the CellTiter-Meiluncell Luminescent Cell Viability Assay Kit from Dalian Meilun Biotech Co., Ltd. The detailed procedure is as follows: Tumor cells were seeded in 96-well cell culture plates at the densities specified in Table 3. On the following day, the test compounds of the present disclosure were subjected to serial dilution. […] Subsequently, 0.5 μL of the test compound dilution was transferred into the 96-well plate containing the cells, with each well containing 100 μL of cell culture medium. […] Into the 96-well plate, the diluted test compounds and corresponding detection reagents were added, resulting in final test compound concentrations of 500 nM and 10 nM, respectively. The experimental procedure is described below using the diluted 2 μM test compound as an example.
(§4) 0.5 μL of the aforementioned diluted compound of the present disclosure (including the compounds in Table 1, and Examples 1-498) was added to the seeded cells in 100 μL of medium, yielding a final test compound concentration of 10 nM. After the cells were treated with the compounds of the present disclosure for a specified period, the cell viability assay reagent was added to the culture medium according to the kit's instructions to determine cell viability. […] All controls were treated using the same procedure as the compounds of the present disclosure. The growth inhibition curves for the compounds of the present disclosure were plotted using Prism GraphPad software, and the IC50 values were calculated therefrom.

CK1α = target: T3, CK1α (Homo sapiens, UniProt P48729+Q96SW2); test: Western blot degradation of CK1α in hPBMCs (24 h); type: cell-based; conditions: compounds at 50 nM and 500 nM
T3 construct: The supernatant was aspirated as the extracted total cell protein; endogenous in cells; host or cells: human peripheral blood mononuclear cells (hPBMCs)
Procedure, shortened: as §1

WEE1 = target: T4, WEE1 (Homo sapiens, UniProt P30291+Q96SW2); test: Western blot degradation of WEE1 in hPBMCs (24 h); type: cell-based; conditions: compounds at 50 nM and 500 nM
T4 construct: The supernatant was aspirated as the extracted total cell protein; endogenous in cells; host or cells: human peripheral blood mononuclear cells (hPBMCs)
Procedure, shortened: as §1

Jurkat cells = test: Inhibition of proliferation of T lymphocytic leukemia cells Jurkat (cell viability assay, 96 h); type: cell-based, human; conditions: read-out: inhibitory activity (IC50) against tumor cells proliferation, Jurkat
Method: as §2, §3, §4

IKZF2 = target: T5, IKZF2 (Homo sapiens, UniProt Q96SW2+Q9UKS7); test: Western blot degradation of IKZF2 in hPBMCs (24 h); type: cell-based; conditions: compounds at 50 nM and 500 nM
T5 construct: The supernatant was aspirated as the extracted total cell protein; endogenous in cells; host or cells: human peripheral blood mononuclear cells (hPBMCs)
Procedure, shortened: as §1

IKZF1 = target: T6, IKZF1 (Homo sapiens, UniProt Q13422+Q96SW2); test: Western blot degradation of IKZF1 in hPBMCs (24 h); type: cell-based; conditions: compounds at 50 nM and 500 nM
T6 construct: The supernatant was aspirated as the extracted total cell protein; endogenous in cells; host or cells: human peripheral blood mononuclear cells (hPBMCs)
Procedure, shortened: as §1

T3 sequence (P48729 whole entry): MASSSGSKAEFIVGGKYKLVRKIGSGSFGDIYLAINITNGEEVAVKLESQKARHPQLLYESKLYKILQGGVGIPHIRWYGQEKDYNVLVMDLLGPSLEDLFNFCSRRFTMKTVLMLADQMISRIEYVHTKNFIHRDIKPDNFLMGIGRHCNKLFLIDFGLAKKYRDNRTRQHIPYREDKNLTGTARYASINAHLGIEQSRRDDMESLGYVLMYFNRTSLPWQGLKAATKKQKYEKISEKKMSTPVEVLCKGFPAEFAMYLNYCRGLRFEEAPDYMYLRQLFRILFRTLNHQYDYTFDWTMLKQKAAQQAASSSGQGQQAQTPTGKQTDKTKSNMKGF
T3 sequence (Q96SW2 whole entry): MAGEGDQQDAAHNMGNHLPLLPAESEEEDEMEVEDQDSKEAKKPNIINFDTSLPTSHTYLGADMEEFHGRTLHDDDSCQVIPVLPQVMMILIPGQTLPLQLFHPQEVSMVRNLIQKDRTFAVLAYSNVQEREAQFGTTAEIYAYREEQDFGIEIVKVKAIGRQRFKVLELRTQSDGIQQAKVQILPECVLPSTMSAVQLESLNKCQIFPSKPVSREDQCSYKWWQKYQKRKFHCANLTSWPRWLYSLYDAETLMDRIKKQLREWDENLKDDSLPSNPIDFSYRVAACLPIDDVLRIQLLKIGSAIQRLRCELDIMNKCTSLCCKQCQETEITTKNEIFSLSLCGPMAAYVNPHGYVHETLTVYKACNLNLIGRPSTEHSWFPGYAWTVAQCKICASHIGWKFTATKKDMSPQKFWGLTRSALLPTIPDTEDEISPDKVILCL
T3 sequence (Q16531 whole entry partner): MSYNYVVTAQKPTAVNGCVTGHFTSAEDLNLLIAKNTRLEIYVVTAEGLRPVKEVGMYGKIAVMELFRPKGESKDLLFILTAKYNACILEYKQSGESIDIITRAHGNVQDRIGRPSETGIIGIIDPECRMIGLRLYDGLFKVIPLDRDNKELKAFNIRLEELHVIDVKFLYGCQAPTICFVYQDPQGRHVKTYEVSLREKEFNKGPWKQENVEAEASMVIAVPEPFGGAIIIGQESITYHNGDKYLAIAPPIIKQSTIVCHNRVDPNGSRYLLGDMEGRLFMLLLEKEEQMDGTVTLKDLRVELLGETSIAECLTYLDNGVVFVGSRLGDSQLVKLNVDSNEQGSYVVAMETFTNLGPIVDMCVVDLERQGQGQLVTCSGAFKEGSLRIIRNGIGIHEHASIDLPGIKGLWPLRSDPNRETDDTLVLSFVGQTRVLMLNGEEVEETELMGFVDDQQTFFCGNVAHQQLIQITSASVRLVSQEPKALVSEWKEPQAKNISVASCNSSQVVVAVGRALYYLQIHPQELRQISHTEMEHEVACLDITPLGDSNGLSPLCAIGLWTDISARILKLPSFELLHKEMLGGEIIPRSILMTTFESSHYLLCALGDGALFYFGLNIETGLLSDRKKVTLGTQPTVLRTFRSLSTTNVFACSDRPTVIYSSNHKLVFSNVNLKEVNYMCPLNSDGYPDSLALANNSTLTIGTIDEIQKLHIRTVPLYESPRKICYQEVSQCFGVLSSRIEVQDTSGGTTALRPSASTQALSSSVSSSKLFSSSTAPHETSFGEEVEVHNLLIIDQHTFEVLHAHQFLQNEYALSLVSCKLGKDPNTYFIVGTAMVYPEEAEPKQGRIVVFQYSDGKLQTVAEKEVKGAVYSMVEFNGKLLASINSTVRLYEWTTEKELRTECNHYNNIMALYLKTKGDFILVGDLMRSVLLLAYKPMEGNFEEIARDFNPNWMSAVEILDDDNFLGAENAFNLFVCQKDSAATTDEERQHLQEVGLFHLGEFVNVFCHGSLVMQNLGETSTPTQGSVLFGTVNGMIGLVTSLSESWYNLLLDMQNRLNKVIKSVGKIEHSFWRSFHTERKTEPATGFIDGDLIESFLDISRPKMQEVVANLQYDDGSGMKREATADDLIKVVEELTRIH
T5 sequence (Q9UKS7 whole entry): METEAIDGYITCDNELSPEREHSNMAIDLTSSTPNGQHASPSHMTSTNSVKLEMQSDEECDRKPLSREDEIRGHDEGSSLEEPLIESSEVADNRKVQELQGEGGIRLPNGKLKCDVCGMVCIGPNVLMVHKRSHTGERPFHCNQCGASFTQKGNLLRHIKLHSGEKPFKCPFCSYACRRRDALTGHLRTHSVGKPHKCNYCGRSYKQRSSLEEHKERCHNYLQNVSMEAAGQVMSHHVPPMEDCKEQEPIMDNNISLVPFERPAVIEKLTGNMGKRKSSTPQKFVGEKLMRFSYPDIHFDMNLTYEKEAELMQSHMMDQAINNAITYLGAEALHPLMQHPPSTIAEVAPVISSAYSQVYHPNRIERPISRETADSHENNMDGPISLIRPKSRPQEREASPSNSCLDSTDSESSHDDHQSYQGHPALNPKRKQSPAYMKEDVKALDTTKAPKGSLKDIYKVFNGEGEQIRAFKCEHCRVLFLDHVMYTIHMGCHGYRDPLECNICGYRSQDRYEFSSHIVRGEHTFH
T5 sequence (Q96SW2 whole entry): as the sequence (Q96SW2 whole entry) above
T5 sequence (Q16531 whole entry partner): as the sequence (Q16531 whole entry partner) above
T4 sequence (P30291 whole entry): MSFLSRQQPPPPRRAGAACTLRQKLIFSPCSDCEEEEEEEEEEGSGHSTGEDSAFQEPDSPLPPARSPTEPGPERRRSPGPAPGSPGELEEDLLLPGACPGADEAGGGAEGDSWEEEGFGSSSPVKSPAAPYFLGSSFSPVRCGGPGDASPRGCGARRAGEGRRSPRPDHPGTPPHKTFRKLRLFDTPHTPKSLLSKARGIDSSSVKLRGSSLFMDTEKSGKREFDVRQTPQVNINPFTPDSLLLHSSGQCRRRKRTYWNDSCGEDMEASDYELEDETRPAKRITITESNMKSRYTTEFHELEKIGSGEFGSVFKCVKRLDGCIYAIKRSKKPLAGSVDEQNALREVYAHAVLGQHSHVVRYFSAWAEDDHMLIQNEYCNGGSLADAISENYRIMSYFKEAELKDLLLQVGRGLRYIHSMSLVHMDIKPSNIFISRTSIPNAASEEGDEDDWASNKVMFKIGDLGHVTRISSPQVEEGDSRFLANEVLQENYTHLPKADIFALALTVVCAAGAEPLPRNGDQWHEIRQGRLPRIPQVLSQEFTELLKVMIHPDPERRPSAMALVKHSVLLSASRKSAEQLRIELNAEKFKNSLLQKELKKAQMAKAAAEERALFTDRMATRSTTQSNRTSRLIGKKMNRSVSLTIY
T4 sequence (Q96SW2 whole entry): as the sequence (Q96SW2 whole entry) above
T4 sequence (Q16531 whole entry partner): as the sequence (Q16531 whole entry partner) above
T6 sequence (Q13422 whole entry): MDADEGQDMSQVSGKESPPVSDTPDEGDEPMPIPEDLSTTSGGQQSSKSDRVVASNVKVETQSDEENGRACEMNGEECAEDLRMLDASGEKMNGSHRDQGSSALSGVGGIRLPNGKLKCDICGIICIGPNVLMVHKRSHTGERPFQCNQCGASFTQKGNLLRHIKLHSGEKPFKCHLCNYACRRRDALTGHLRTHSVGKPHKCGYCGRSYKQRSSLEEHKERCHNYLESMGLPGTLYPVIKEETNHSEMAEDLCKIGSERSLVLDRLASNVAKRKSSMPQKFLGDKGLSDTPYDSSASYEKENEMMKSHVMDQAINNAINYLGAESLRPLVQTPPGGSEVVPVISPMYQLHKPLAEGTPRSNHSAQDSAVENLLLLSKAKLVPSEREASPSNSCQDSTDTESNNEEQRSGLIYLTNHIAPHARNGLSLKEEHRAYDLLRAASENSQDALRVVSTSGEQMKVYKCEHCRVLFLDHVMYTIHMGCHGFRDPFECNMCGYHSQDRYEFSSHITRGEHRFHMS
T6 sequence (Q96SW2 whole entry): as the sequence (Q96SW2 whole entry) above
T6 sequence (Q16531 whole entry partner): as the sequence (Q16531 whole entry partner) above
T2 sequence (Q9UKT9 whole entry): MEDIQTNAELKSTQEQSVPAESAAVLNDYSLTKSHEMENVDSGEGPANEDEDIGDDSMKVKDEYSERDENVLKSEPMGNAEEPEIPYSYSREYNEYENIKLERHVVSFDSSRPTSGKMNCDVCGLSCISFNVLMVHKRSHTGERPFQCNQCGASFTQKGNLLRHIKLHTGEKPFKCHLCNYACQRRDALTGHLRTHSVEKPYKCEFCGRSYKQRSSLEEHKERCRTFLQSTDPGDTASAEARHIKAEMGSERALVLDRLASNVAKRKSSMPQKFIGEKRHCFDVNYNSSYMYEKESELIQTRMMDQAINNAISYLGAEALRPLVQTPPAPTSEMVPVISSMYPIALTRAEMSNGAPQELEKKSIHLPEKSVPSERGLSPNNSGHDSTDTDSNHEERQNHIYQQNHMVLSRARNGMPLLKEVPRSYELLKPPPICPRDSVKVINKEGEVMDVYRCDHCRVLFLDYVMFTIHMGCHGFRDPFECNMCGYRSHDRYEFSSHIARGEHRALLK
T2 sequence (Q96SW2 whole entry): as the sequence (Q96SW2 whole entry) above
T2 sequence (Q16531 whole entry partner): as the sequence (Q16531 whole entry partner) above

SMILES | GSPT1 substrate protein remaining % (GSPT1) | IKZF3 substrate protein remaining % (IKZF3) | IC50 (MM.1S cells) [nM] | CK1α substrate protein remaining % (CK1α) | WEE1 substrate protein remaining % (WEE1) | IC50 (Jurkat cells) [nM] | IKZF2 substrate protein remaining % (IKZF2) | IKZF1 substrate protein remaining % (IKZF1)
O=C1CCN(N2Cc3cc(CN4CC=C(c5ccco5)CC4)ccc3C2=O)C(=O)N1 [GT-04874, 1-(5-((4-(furan-2-yl)-3,6-dihydropyridin-1(2H)-yl)methyl)-1-oxoisoindolin-2-yl)dihydropyrimidine-2,4(1H,3H)-dione] | A (0% ≤ substrate protein remaining % ≤80%) | A (0% ≤ substrate protein remaining % ≤80%) | 100 to 300 | B (80%< substrate protein remaining % ≤100%) | A (0% ≤ substrate protein remaining % ≤80%) | 500 to 1000 | B (80%< substrate protein remaining % ≤100%) | A (0% ≤ substrate protein remaining % ≤80%)
O=C1CCN(N2Cc3cc(CN4CC=C(c5cncc(Cl)c5Cl)CC4)ccc3C2=O)C(=O)N1 [GT-06393, 1-(5-((4,5-dichloro-3′,6′-dihydro-[3,4′-bipyridin]-1′ (2′H)-yl)methyl)-1-oxoisoindolin-2-yl)dihydropyrimidine-2,4(1H,3H)-dione] | A (0% ≤ substrate protein remaining % ≤80%) | A (0% ≤ substrate protein remaining % ≤80%) | 500 to 1000 | A (0% ≤ substrate protein remaining % ≤80%) | A (0% ≤ substrate protein remaining % ≤80%) | – | A (0% ≤ substrate protein remaining % ≤80%) | B (80%< substrate protein remaining % ≤100%)
CC1(C)CCC(CN2CC3CC(C2)N3Cc2ccc3c(c2)CN(N2CCC(=O)NC2=O)C3=O)=C(c2ccc(Cl)cc2)C1 [GT-06456, 1-(5-((3-((4′-chloro-5,5-dimethyl-3,4,5,6-tetrahydro-[1,1′-biphenyl]-2-yl)methyl)-3,6-diazabicyclo[3.1.1]heptan-6-yl)methyl)-1-oxoisoindolin-2-yl)dihydropyrimidine-2,4(1H,3H)-dione] | A (0% ≤ substrate protein remaining % ≤80%) | A (0% ≤ substrate protein remaining % ≤80%) | 100 to 300 | A (0% ≤ substrate protein remaining % ≤80%) | A (0% ≤ substrate protein remaining % ≤80%) | – | A (0% ≤ substrate protein remaining % ≤80%) | A (0% ≤ substrate protein remaining % ≤80%)
O=C1CCN(N2C(=O)c3ccc(CN4CCN(c5ncc(C(F)(F)F)cc5Cl)CC4)cc3C2=O)C(=O)N1 [GT-07026, 5-((4-(3-chloro-5-(trifluoromethyl)pyridin-2-yl)piperazin-1-yl)methyl)-2-(2,4-dioxotetrahydropyrimidin-1(2H)-yl)isoindoline-1,3-dione] | A (0% ≤ substrate protein remaining % ≤80%) | B (80%< substrate protein remaining % ≤100%) | – | B (80%< substrate protein remaining % ≤100%) | A (0% ≤ substrate protein remaining % ≤80%) | 500 to 1000 | B (80%< substrate protein remaining % ≤100%) | B (80%< substrate protein remaining % ≤100%)
O=C1CCN(N2Cc3cc(CN4CCN(C(c5cccc(F)c5)c5cccc(F)c5)CC4)ccc3C2=O)C(=O)N1 [GT-07293, 1-(5-((4-(bis(3-fluorophenyl)methyl)piperazin-1-yl)methyl)-1-oxoisoindolin-2-yl)dihydropyrimidine-2,4(1H,3H)-dione] | A (0% ≤ substrate protein remaining % ≤80%) | A (0% ≤ substrate protein remaining % ≤80%) | 100 to 300 | B (80%< substrate protein remaining % ≤100%) | A (0% ≤ substrate protein remaining % ≤80%) | 100 to 300 | A (0% ≤ substrate protein remaining % ≤80%) | B (80%< substrate protein remaining % ≤100%)
O=C1CCN(N2Cc3cc(CN4CCC(c5ccsc5)CC4)ccc3C2=O)C(=O)N1 [GT-07371, 1-(1-oxo-5-((4-(thiophen-3-yl)piperidin-1-yl)methyl)isoindolin-2-yl)dihydropyrimidine-2,4(1H,3H)-dione] | A (0% ≤ substrate protein remaining % ≤80%) | A (0% ≤ substrate protein remaining % ≤80%) | 500 to 1000 | B (80%< substrate protein remaining % ≤100%) | B (80%< substrate protein remaining % ≤100%) | – | B (80%< substrate protein remaining % ≤100%) | B (80%< substrate protein remaining % ≤100%)
Cc1ccc(C2CCN(Cc3ccc4c(c3)CN(N3CCC(=O)NC3=O)C4=O)CC2)s1 [GT-07425, 1-(5-((4-(5-methylthiophen-2-yl)piperidin-1-yl)methyl)-1-oxoisoindolin-2-yl)dihydropyrimidine-2,4(1H,3H)-dione] | A (0% ≤ substrate protein remaining % ≤80%) | B (80%< substrate protein remaining % ≤100%) | 500 to 1000 | B (80%< substrate protein remaining % ≤100%) | B (80%< substrate protein remaining % ≤100%) | – | B (80%< substrate protein remaining % ≤100%) | B (80%< substrate protein remaining % ≤100%)
O=C1CCN(N2Cc3cc(CN4CC=C(c5ccnc(Cl)c5Cl)CC4)ccc3C2=O)C(=O)N1 [GT-07432, 1-(5-((2′,3′-dichloro-3,6-dihydro-[4,4′-bipyridin]-1(2H)-yl)methyl)-1-oxoisoindolin-2-yl)dihydropyrimidine-2,4(1H,3H)-dione] | A (0% ≤ substrate protein remaining % ≤80%) | A (0% ≤ substrate protein remaining % ≤80%) | 300 to 500 | A (0% ≤ substrate protein remaining % ≤80%) | A (0% ≤ substrate protein remaining % ≤80%) | 500 to 1000 | A (0% ≤ substrate protein remaining % ≤80%) | A (0% ≤ substrate protein remaining % ≤80%)
O=C1CCN(N2Cc3cc(CN4CCC(c5cccs5)CC4)ccc3C2=O)C(=O)N1 [GT-07511, 1-(1-oxo-5-((4-(thiophen-2-yl)piperidin-1-yl)methyl)isoindolin-2-yl)dihydropyrimidine-2,4(1H,3H)-dione] | A (0% ≤ substrate protein remaining % ≤80%) | B (80%< substrate protein remaining % ≤100%) | 500 to 1000 | A (0% ≤ substrate protein remaining % ≤80%) | A (0% ≤ substrate protein remaining % ≤80%) | 500 to 1000 | A (0% ≤ substrate protein remaining % ≤80%) | A (0% ≤ substrate protein remaining % ≤80%)
